Where “and” joins values, the source holds several entries; their conditions need not be identical. Equal entries are not always repeated. Inconclusive results and toxic doses are left out. The calls were made as follows: active = survival T/C of 150% or more; inactive = T/C below 125% in these data.
System: BALB/c mice, Madison 109 lung carcinoma i.m., survival
Assay: NCI In Vivo Anticancer Drug Screen. Data for tumor model Madison 109 Lung Carcinoma (intramuscular) in BALB/CM mice
Conditions: endpoint: median survival time, schedule: Q01DX009 (ip), higher = longer survival
Experimental: The antitumor activity of compounds was measured in mice bearing transplantable tumors. Survival or tumor size were measured and the results are expressed as the measurement made in the treated group (T) divided by the measurement made in the vehicle treated control group (C). The tumor model used in this assay is Madison 109 Lung Carcinoma (intramuscular) in BALB/CM mice

[1] = dose: 8.0 mg/kg/injection, vehicle: saline with Tween-80
[2] = dose: 16.0 mg/kg/injection, vehicle: saline with Tween-80
[3] = dose: 32.0 mg/kg/injection, vehicle: saline with Tween-80
[4] = dose: 64.0 mg/kg/injection, vehicle: saline with Tween-80
[5] = dose: 25.0 mg/kg/injection, vehicle: saline with Tween-80
[6] = dose: 50.0 mg/kg/injection, vehicle: saline with Tween-80
[7] = dose: 100.0 mg/kg/injection, vehicle: saline with Tween-80
[8] = dose: 200.0 mg/kg/injection, vehicle: saline with Tween-80
[9] = dose: 0.5 mg/kg/injection, vehicle: saline
[10] = dose: 1.0 mg/kg/injection, vehicle: saline
[11] = dose: 2.0 mg/kg/injection, vehicle: saline
[12] = dose: 4.0 mg/kg/injection, vehicle: saline with Tween-80
[13] = dose: 4.0 mg/kg/injection, vehicle: saline
[14] = dose: 8.0 mg/kg/injection, vehicle: saline
[15] = dose: 16.0 mg/kg/injection, vehicle: saline
[16] = dose: 400.0 mg/kg/injection, vehicle: saline with Tween-80
[17] = dose: 128.0 mg/kg/injection, vehicle: saline with Tween-80
[18] = dose: 256.0 mg/kg/injection, vehicle: saline with Tween-80
[19] = dose: 512.0 mg/kg/injection, vehicle: saline with Tween-80
[20] = dose: 0.12 mg/kg/injection, vehicle: saline
[21] = dose: 0.25 mg/kg/injection, vehicle: saline
[22] = dose: 12.5 mg/kg/injection, vehicle: saline with Tween-80

Measured: T/C

O=S(=O)(O)O
inactive: [1] 109 % of control | [2] 108 % of control | [3] 111 % of control | [4] 112 % of control

CCOC(=O)NC1=C(N2CC2)C(=O)C(NC(=O)OCC)=C(N2CC2)C1=O
inactive: dose: 0.12 mg/kg/injection, vehicle: saline with Tween-80 99 % of control and 102 % of control and 111 % of control | dose: 0.25 mg/kg/injection, vehicle: saline with Tween-80 105 % of control and 111 % of control | dose: 0.5 mg/kg/injection, vehicle: saline with Tween-80 103 % of control and 105 % of control

CCOC(=O)CC(SP(=S)(OC)OC)C(=O)OCC (stereo not given)
inactive: [5] 108 % of control | [6] 112 % of control | [7] 121 % of control | [8] 96 % of control

O=C1c2ccccc2C(=O)c2c(NCCNCCO)ccc(NCCNCCO)c21
inactive: [9] 116 % of control | [10] 119 % of control | [11] 102 % of control and 117 % of control | [12] 107 % of control and 115 % of control | [13] 117 % of control and 121 % of control | [1] 100 % of control and 118 % of control | [14] 113 % of control and 119 % of control | [15] 111 % of control

CNc1nc(N(C)C)nc(N(C)C)n1
inactive: dose: 25.0 mg/kg/injection, vehicle: saline 100 % of control | dose: 50.0 mg/kg/injection, vehicle: saline 100 % of control

ClC1C(Cl)C(Cl)C(Cl)C(Cl)C1Cl (stereo not given)
inactive: [5] 116 % of control | [7] 119 % of control | [16] 86 % of control

COc1cccc2c1C(=O)c1c(O)c3c(c(O)c1C2=O)C[C@@](O)(C(C)=O)C[C@@H]3OC1CC(N)C(O)C(C)O1 (stereo not given in full)
inactive: dose: 0.12 mg/kg/injection, vehicle: water 110 % of control | dose: 0.25 mg/kg/injection, vehicle: water 102 % of control | dose: 0.5 mg/kg/injection, vehicle: water 118 % of control | dose: 1.0 mg/kg/injection, vehicle: water 118 % of control

CC1=C(/C=C/C(C)=C/C=C/C(C)=C/C(=O)O)C(C)(C)CCC1
inactive: [9] 107 % of control | [10] 110 % of control | [11] 100 % of control | [13] 93 % of control and 94 % of control | [14] 98 % of control and 100 % of control | [15] 108 % of control | dose: 32.0 mg/kg/injection, vehicle: saline 104 % of control

CCOC(=O)C(C)(C)Oc1ccc(Cl)cc1
inactive: [6] 112 % of control | [7] 109 % of control | [8] 116 % of control | [16] 109 % of control

Cc1c[nH]c(=O)[nH]c1=O
inactive: [3] 115 % of control and 118 % of control | [4] 97 % of control and 112 % of control | [17] 86 % of control and 115 % of control | [18] 106 % of control and 118 % of control | [19] 101 % of control and 102 % of control

CC(=O)c1cccc(NC2C(N)C(NC(=O)N(C)C)(C(C)O)C(C)(O)C2(O)COC(=O)c2c(C)cccc2O)c1 (stereo not given)
inactive: dose: 0.3 mg/kg/injection, vehicle: saline 98 % of control | dose: 0.6 mg/kg/injection, vehicle: saline 100 % of control | dose: 1.2 mg/kg/injection, vehicle: saline 103 % of control

Nc1ncnc2nc[nH]c12
inactive: dose: 2.0 mg/kg/injection, vehicle: saline with Tween-80 120 % of control | [12] 119 % of control | [1] 101 % of control and 108 % of control | [2] 90 % of control and 117 % of control and 120 % of control

O=c1ccc2ccccc2o1
inactive: [5] 118 % of control | [6] 105 % of control and 111 % of control | [7] 100 % of control and 111 % of control | [8] 113 % of control

COC1C(O)CC(OC2CC(Oc3cc4cc5c(c(O)c4c(O)c3C)C(=O)[C@@H](OC3CC(OC4CC(OC6CC(C)(O)C(OC(C)=O)C(C)O6)C(O)C(C)O4)C(O)C(C)O3)[C@H]([C@H](OC)C(=O)[C@@H](O)[C@@H](C)O)C5)OC(C)C2OC(C)=O)OC1C (stereo not given in full)
inactive: dose: 0.01 mg/kg/injection, vehicle: saline 100 % of control | dose: 0.03 mg/kg/injection, vehicle: saline 102 % of control | dose: 0.06 mg/kg/injection, vehicle: saline 105 % of control | [20] 95 % of control

COc1ccc(CC2C(=O)NC(C)C(=O)N(C)C3C(=O)N(C)C(Cc4ccc(O)c(c4)Oc4ccc(cc4)C3O)C(=O)NC(C)C(=O)NC(C)C(=O)N2C)cc1 (stereo not given)
inactive: [20] 110 % of control | [21] 113 % of control | [9] 113 % of control | [11] 103 % of control

CC(C)NCC(O)COc1cccc2ccccc12 (stereo not given)
inactive: [12] 111 % of control | [3] 124 % of control | [4] 120 % of control

ClC(Cl)=C(Cl)Cl
inactive: [6] 119 % of control | [7] 113 % of control | [8] 107 % of control

O=C1c2c(O)ccc(O)c2C(=O)c2c(NCCNCCO)ccc(NCCNCCO)c21
inactive: [20] 108 % of control | [21] 117 % of control | [9] 123 % of control | [10] 123 % of control

Cc1cc(N(CC(C)Br)CC(C)Br)ccc1N=Nc1ccccc1C(=O)O (stereo not given)
inactive: dose: 3.12 mg/kg/injection, vehicle: saline with Tween-80 110 % of control | dose: 6.25 mg/kg/injection, vehicle: saline with Tween-80 105 % of control | [22] 113 % of control

NNC(=O)c1ccncc1
inactive: [14] 101 % of control | [15] 111 % of control | dose: 64.0 mg/kg/injection, vehicle: saline 107 % of control | dose: 128.0 mg/kg/injection, vehicle: saline 108 % of control

Nc1ccnc(=O)[nH]1
inactive: [3] 111 % of control and 115 % of control | [4] 98 % of control and 105 % of control | [17] 104 % of control and 105 % of control | [18] 93 % of control and 105 % of control | [19] 115 % of control and 117 % of control

COC1=C(N)C(=O)c2nc(-c3nc(C(=O)O)c(C)c(-c4ccc(OC)c(OC)c4O)c3N)ccc2C1=O
inactive: dose: 0.01 mg/kg/injection, vehicle: saline with Tween-80 95 % of control | dose: 0.02 mg/kg/injection, vehicle: saline with Tween-80 95 % of control | dose: 0.04 mg/kg/injection, vehicle: saline with Tween-80 92 % of control | dose: 0.16 mg/kg/injection, vehicle: saline with Tween-80 93 % of control

Nc1ccc(S(=O)(=O)c2ccc(N)cc2)cc1
inactive: [22] 102 % of control | [5] 103 % of control and 115 % of control | [6] 113 % of control and 117 % of control | [7] 112 % of control | [8] 96 % of control and 102 % of control | [16] 108 % of control
